Assay results published in article PMC12799524, “Putative new biomarkers for renal transporter-mediated drug-drug interactions: Characterization as substrates of organic cation transporter 2, multidrug and toxin extrusion protein 1, and other important drug transporters” (Drug Metabolism and Disposition, 2025).

Key:
human OAT1 = target: T1, human OAT1 (Homo sapiens, UniProt Q4U2R8); test: Uptake assay in HEK-OAT1 vs HEK-VC cells; assay type: in vitro ADME
T1 construct: expressed in transfected cells; host or cells: HEK293 (HEK-OAT1), plasmid pOAT1.31 in pcDNA3.1/Hy(-)
T1 sequence (Q4U2R8 1-563): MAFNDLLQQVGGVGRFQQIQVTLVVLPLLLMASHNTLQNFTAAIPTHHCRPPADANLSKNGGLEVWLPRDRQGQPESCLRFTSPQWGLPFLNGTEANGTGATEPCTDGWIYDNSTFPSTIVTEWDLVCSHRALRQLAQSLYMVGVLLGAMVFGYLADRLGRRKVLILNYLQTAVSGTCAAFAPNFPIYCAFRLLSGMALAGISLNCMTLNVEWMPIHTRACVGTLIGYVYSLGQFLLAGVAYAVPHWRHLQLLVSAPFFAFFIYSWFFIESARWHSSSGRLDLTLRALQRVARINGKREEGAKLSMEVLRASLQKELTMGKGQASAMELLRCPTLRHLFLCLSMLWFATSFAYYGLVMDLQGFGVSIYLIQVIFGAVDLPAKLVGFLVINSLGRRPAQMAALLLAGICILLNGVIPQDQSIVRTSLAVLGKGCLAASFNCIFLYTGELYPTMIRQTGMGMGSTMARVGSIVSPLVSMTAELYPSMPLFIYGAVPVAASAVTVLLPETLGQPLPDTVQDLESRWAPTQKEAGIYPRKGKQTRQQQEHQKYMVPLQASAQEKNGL
Procedure: (§1) Transport experiments were performed 48 hours after seeding.

P-gp = P-gp (Homo sapiens, UniProt P08183); test: Intracellular accumulation and basal to apical transport in Caco-2 cells with/without valspodar; details: for In Vitro P-gp (substrate class): Caco-2 cells, valspodar
P-gp, sequence (P08183 whole entry): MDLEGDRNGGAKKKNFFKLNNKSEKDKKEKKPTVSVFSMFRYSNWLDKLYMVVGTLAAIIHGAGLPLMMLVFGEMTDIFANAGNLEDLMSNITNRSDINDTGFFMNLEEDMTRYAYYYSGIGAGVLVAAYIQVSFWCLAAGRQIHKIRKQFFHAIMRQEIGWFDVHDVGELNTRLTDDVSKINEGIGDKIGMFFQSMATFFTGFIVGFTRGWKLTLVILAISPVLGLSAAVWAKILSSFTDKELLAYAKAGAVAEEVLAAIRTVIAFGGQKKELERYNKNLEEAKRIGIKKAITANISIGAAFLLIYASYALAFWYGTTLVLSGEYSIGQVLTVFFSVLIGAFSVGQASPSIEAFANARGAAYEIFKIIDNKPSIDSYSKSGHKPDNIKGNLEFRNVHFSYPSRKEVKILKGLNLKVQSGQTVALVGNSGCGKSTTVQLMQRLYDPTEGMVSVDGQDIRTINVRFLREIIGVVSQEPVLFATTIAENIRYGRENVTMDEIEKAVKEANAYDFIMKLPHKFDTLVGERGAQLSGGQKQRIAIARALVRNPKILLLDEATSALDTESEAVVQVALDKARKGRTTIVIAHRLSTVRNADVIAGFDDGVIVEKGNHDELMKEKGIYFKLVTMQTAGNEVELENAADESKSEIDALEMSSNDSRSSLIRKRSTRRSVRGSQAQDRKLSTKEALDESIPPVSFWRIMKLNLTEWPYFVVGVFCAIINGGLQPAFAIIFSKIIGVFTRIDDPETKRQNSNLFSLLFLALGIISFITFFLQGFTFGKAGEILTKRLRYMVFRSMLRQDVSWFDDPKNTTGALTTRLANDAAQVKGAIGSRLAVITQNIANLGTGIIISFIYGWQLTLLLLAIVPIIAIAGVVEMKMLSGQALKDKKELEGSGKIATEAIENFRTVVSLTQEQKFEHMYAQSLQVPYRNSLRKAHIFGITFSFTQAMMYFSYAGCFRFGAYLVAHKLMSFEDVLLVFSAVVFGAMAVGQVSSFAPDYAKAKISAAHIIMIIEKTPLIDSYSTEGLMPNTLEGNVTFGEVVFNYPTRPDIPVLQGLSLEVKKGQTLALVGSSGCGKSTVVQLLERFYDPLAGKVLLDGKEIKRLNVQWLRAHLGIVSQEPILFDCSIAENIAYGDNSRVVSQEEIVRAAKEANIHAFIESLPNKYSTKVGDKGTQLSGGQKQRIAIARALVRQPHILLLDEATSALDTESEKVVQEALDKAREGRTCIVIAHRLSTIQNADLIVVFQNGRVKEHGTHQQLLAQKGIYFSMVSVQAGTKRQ
Procedure: The intracellular accumulation and transcellular, basal to apical transport experiments were performed as previously described in monolayers of polarized single-transfected (MDCK-OCT2, MDCK-MATE1) and double-transfected (MDCK-OCT2-MATE1) MDCK cells, MDCK control cells (MDCK-VC), or Caco-2 cells.[22] In brief, cell monolayers were grown in cell culture inserts on porous membranes. For MDCK-VC, MDCK-OCT2 and Caco-2, 5 × 10^5 cells were used per well; for MDCK-OCT2-MATE1, 6 × 10^5 cells were used, and for MDCK-MATE1, 8 × 10^5 cells were used per well. Cells were grown to confluence for 72 hours, induced with 10 mM sodium butyrate 48 hours after seeding for 24 hours (MDCK only), and subsequently used for transport experiments.
In general, after the cell culture medium was removed from both sides of the monolayers, cells were washed at 37 °C with transport buffer of the same composition as described in the previous section. Experiments were started by replacing the medium in the basal compartment with medium containing the putative biomarkers or [^3H]-labeled positive control substrates. The pH of the buffer on the basal side was 7.3 and 6.5 on the apical side for MDCK cells, whereas it was 7.3 on either side for Caco-2 cells. Cells were incubated at 37 °C and the buffer from the apical compartment was taken after 60 minutes for MDCK cells and after 240 minutes for Caco-2 cells. In case of Caco-2 cells, endogenous P-gp was inhibited by adding 2 μM of valspodar to the basal compartment. To measure the cellular accumulation of the test compounds, the remaining medium was removed at the end of the incubation period and the cell monolayers were rapidly rinsed 3 times with ice-cold 0.9% NaCl in water. Filters were detached from the chambers and placed into 500 μL of 80% MeOH containing the aforementioned recovery standards to lyse cells for subsequent LC-MS analysis or into 600 μL of 0.2% SDS (control experiments only). In the control experiments, the radioactivity of the collected apical medium and the solubilized cell monolayers and protein concentrations of the cell lysates were measured in the same way as described for the experiments with HEK cells.
(§2) The intracellular background of all 5 compounds in HEK cells at the beginning of the uptake experiments was investigated 48 hours after seeding without incubation with transport buffer (ie, 0 minutes). […] Then, cells were lysed with ice-cold 80% MeOH containing the aforementioned recovery standards. In addition, the impact of a 5-minute incubation period with transport buffer without added substance was investigated.

human OCT2 = target: T2, human OCT2 (Homo sapiens, UniProt O15244); test: Uptake assay in HEK-OCT2 vs HEK-VC cells; assay type: in vitro ADME; design: expressed in transfected cells; host or cells: HEK293 (HEK-OCT2); details: for Effect of cimetidine on uptake in HEK-OCT2 cells: cimetidine 50 μM; for Effect of cimetidine on uptake in HEK-OCT2 cells / Uptake in HEK-OCT2 cells compared to HEK-VC cells (in words): 10 and 100 μM substrate; for In Vitro OCT2 (substrate class): summary of in vitro uptake/transport results
T2 sequence (O15244 1-555): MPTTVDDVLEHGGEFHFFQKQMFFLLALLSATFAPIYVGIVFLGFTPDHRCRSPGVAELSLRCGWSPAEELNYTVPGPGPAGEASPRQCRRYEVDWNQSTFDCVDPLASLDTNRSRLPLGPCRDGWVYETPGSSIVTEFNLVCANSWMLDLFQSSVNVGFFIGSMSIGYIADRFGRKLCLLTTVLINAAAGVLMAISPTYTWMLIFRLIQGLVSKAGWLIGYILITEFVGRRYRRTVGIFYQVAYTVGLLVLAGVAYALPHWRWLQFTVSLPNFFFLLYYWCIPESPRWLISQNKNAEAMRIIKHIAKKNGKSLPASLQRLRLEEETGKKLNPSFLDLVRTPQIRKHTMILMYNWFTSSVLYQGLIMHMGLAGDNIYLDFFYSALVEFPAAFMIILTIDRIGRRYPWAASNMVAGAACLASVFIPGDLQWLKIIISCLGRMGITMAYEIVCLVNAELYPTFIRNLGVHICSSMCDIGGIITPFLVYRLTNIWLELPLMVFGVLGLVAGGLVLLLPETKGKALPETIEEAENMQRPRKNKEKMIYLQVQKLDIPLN
Procedure: as §1, §2

[1] = 10 μM substrate, 240 minutes, valspodar 2 μM
[2] = 10 μM substrate, 5 minutes, HEK-VC set to 100%

| In Vitro OAT1 (substrate class) (human OAT1) | Effect of valspodar on basal to apical translocation in Caco-2 cells (P-gp; [1]) | In Vitro P-gp (substrate class) (P-gp) | Intracellular background in HEK-OCT2 cells compared to HEK-VC cells (human OCT2; 0 minutes, without added substance) | Intracellular concentration in HEK-OCT2 cells compared to HEK-VC cells (in words) (human OCT2; 10 μM substrate, 5 minutes) | Intracellular concentration in HEK-OCT2 cells compared to HEK-VC cells (in words) (human OCT2; 100 μM substrate, 5 minutes) | Intracellular background in HEK-OCT2 cells compared to HEK-VC cells (human OCT2; 5 minutes in transport buffer without added substance) | Effect of cimetidine on uptake in HEK-OCT2 cells (human OCT2; 5 minutes) | In Vitro OCT2 (substrate class) (human OCT2) | Uptake in HEK-OCT2 cells compared to HEK-VC cells (human OCT2; [2]) [%] | Uptake ratio in HEK-OCT2 cells compared to HEK-VC cells (human OCT2; 100 μM substrate, 5 minutes, HEK-VC set to 100%) [%] | Uptake in HEK-OCT2 cells compared to HEK-VC cells (in words) (human OCT2; 5 minutes) | Compound | Transcellular transport in Caco-2 cells with valspodar, of the respective control (P-gp; 10 μM substrate, 240 minutes, valspodar 2 μM, without valspodar set to 100%) [%] |
| --- | --- | --- | --- | --- | --- | --- | --- | --- | --- | --- | --- | --- | --- |
| - | no significant effect | - | lower | comparable | significantly higher | lower | significantly reduced | + |  |  |  | C[N+](C)(C)CCCCC(=O)[O-] [5-Amino valeric acid betaine, 5-amino valeric acid betaine] |  |
| - | no significant effect | - |  |  |  |  | significantly reduced | ++ | 3960 | 6281 | significantly higher | NCCc1c[nH]c2ccc(O)cc12 [Serotonin, serotonin] |  |
| - | no significant effect | - |  |  |  |  | significantly reduced | ++ | 3245 |  | significantly higher | NCCc1ccc(O)cc1 [Tyramine, tyramine] |  |

| Compound | In Vitro OAT1 (substrate class) (human OAT1) | Effect of valspodar on basal to apical translocation in Caco-2 cells (P-gp; [1]) | In Vitro P-gp (substrate class) (P-gp) | Intracellular background in HEK-OCT2 cells compared to HEK-VC cells (human OCT2; 0 minutes, without added substance) | Intracellular concentration in HEK-OCT2 cells compared to HEK-VC cells (in words) (human OCT2; 10 μM substrate, 5 minutes) | Intracellular concentration in HEK-OCT2 cells compared to HEK-VC cells (in words) (human OCT2; 100 μM substrate, 5 minutes) | Intracellular background in HEK-OCT2 cells compared to HEK-VC cells (human OCT2; 5 minutes in transport buffer without added substance) | Effect of cimetidine on uptake in HEK-OCT2 cells (human OCT2; 5 minutes) | In Vitro OCT2 (substrate class) (human OCT2) | Uptake in HEK-OCT2 cells compared to HEK-VC cells (human OCT2; [2]) [%] | Uptake ratio in HEK-OCT2 cells compared to HEK-VC cells (human OCT2; 100 μM substrate, 5 minutes, HEK-VC set to 100%) [%] | Uptake in HEK-OCT2 cells compared to HEK-VC cells (in words) (human OCT2; 5 minutes) | Transcellular transport in Caco-2 cells with valspodar, of the respective control (P-gp; 10 μM substrate, 240 minutes, valspodar 2 μM, without valspodar set to 100%) [%] |
| --- | --- | --- | --- | --- | --- | --- | --- | --- | --- | --- | --- | --- | --- |
| Cn1cnc(CCN)c1 [1-Methylhistamine, 1-methylhistamine] | - | significantly reduced | 0 (significant uptake in HEK cells, but less than 300% of respective control cells or significant reduction of transcellular transport in Caco-2 cells, but reduction not below 50% of respective control without valspodar) |  |  |  |  |  |  |  |  |  | 67 |
